“And” between values parts separate entries of the source, which are not always exact repeats. Identical values can stand only once. Like-named read-outs stand apart in the source and are kept apart here.
Columns and labels:
D2L-YFP = assay: Agonist-induced receptor internalization assessed via confocal microscopy; type: cell-based; details: 15 min, room temperature, 50 nM MNPA or 10 μM dopamine
D2L DAR [1] = biological target: T1, D2L DAR (Rattus norvegicus, UniProt P61169); type: cell-based; details: for % Maximum inhibition: 3 μM forskolin-stimulated cAMP accumulation, 10 min 37°C, HEK293T
D2L DAR [2] = biological target: T1, D2L DAR; type: binding
D2L DAR [3] = biological target: T1, D2L DAR; type: binding; details: intact cells; for hill coefficient: [3H]sulpiride competition
D3 DAR [4] = biological target: T2, D3 DAR (Rattus norvegicus, UniProt P19020); type: cell-based
D3 DAR [5] = biological target: T2, D3 DAR; type: binding; details: read-out: KiL
D2L DAR [6] = biological target: T1, D2L DAR; type: binding; details: for % decrease of Bmax: by Gpp(NH)p 100 μM
D2L DAR [7] = biological target: T1, D2L DAR; type: cell-based; details: 50 nM MNPA or 10 μM dopamine

T1 sequence (P61169 whole entry): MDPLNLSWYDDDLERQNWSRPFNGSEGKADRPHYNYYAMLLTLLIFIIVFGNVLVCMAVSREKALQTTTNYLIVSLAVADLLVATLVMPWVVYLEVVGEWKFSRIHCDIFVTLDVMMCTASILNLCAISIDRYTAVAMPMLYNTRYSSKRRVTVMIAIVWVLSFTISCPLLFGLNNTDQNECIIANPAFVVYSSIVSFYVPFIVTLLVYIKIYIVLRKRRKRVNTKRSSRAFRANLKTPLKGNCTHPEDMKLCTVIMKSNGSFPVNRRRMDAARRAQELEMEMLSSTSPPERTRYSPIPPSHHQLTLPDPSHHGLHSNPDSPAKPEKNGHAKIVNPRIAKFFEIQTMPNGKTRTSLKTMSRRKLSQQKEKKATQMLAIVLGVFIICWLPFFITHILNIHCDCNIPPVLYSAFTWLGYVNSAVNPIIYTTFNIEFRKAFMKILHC
T2 sequence (P19020 whole entry): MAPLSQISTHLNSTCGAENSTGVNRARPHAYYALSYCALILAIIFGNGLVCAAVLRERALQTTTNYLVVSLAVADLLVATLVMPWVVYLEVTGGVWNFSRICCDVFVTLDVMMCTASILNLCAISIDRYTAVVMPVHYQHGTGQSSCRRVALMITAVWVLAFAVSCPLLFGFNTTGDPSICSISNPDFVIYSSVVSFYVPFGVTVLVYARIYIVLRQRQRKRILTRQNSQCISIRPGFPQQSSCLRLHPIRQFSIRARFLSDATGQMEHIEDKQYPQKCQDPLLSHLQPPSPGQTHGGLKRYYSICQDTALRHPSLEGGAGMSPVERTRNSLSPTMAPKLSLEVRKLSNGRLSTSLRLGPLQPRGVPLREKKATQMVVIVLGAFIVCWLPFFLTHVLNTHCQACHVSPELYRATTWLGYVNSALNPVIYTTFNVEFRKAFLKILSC

With NCCc1ccc(O)c(O)c1 [Dopamine, dopamine, reference compound] the “internalization of the D2-YFP receptor (confocal images)” value (D2L-YFP) was “some of the D2-YFP fluorescence is apparent in punctuated, vesicle-like structures in the cytosol”.
Work on CCCN1CCc2cc(OC)cc3c2[C@H]1Cc1ccc(O)c(O)c1-3 [MNPA, (R)-2-^11CH3O-N-n-propylnorapomorphine] yielded an IC50 (D2L DAR [1]; inhibition of forskolin-stimulated cAMP accumulation, no antagonist) of 0.33 ± 0.26 nM, a Ki (D2L DAR [2]; read-out: KiH, high affinity state, absence of GTP, [3H]methylspiperone ~0.2 nM) of 0.09 ± 0.02 nM and a Ki (D2L DAR [2]; read-out: KiL, + GTP 100 μM, single site) of 13.7 ± 3.3 nM. It also gave a Ki (D2L DAR [2]; read-out: KiL, low affinity state, absence of GTP) of 16.9 ± 3.2 nM, a Ki (D2L DAR [3]; [3H]sulpiride ~2 nM, 1 hour 37°C, single site) of 109 ± 52 nM and an IC50 (D3 DAR [4]; 3 μM forskolin, D3 DAR + AC-V, no antagonist) of 3.43 nM. It also gave an EC50 (D3 DAR [4]; read-out: EC50 value for inhibiting D3 DAR activity) of 3.4 nM, a Ki (D3 DAR [5]; + GTP 100 μM (dopamine: one-site fit)) of 1.09 ± 1.7 nM and a Ki (D3 DAR [5]; absence of GTP (dopamine: one-site fit)) of 1.02 ± 0.2 nM.
With CCCN1CCc2cc(O[11CH3])cc3c2[C@H]1Cc1ccc(O)c(O)c1-3 [MNPA, (R)-2-^11CH3O-N-n-propylnorapomorphine] the “% Maximum inhibition” value (D2L DAR [1]) was 82 ± 3%, the “agonist character at the D2L DAR” value (D2L DAR [1]; cAMP accumulation) was “potent and full agonist” and the “fold lower Ki values than dopamine” value (D2L DAR [2]) was 200-1000 fold. For the same compound, the “% RH (percentage of receptors configured in the GTP sensitive high-affinity state)” value (D2L DAR [2]; absence of GTP) was 24 ± 1%, the hill coefficient (D2L DAR [3]) was 1.7 ± 0.2 and the “fold increase of Kd by Gpp(NH)p” value (D2L DAR [6]; Gpp(NH)p 100 μM) was about 2 fold. The “% decrease of Bmax” value (D2L DAR [6]) was 21 ± 9%, the “% decrease of Bmax” value (D2L DAR [6]; listed as [^3H]MNPA) was 17-21% and the “% decrease of Bmax” value (D2L DAR [7]; Arrestin2 co-transfection) was 53 ± 2%. For the same compound, the “Bmax of [3H]sulpiride after agonist pretreatment” value (shortened to “Bmax of [3H]sulpiride”) (D2L DAR [7]; Arrestin2 co-transfection) was 3.00 ± 0.33 fmol/10^5cells, the “% decrease of Bmax” value (D2L DAR [7]; Arrestin3 co-transfection) was 68 ± 8% and the “Bmax of [3H]sulpiride” value (D2L DAR [7]; Arrestin3 co-transfection) was 2.75 ± 0.27 fmol/10^5cells. For the same compound, the “% decrease of Bmax” value (D2L DAR [7]; pcDNA transfection) was 23% and 23 ± 7%, the “Bmax of [3H]sulpiride” value (D2L DAR [7]; pcDNA transfection) was 7.25 ± 0.53 fmol/10^5cells and the “fold higher EC50 at D3 DAR compared to D2 DAR” value (D3 DAR [4]) was about 10 fold. For the same compound, the “fold reduction in potency by (+)-butaclamol” value (D3 DAR [4]; 10 μM (+)butaclamol) was 100 fold, the “agonist character at the D3 DAR” value (D3 DAR [4]; cAMP accumulation) was “full agonist” and the “potency relative to dopamine at the D3 DAR” value (D3 DAR [4]; cAMP accumulation) was “slightly less potent than dopamine”. For the same compound, the “inhibition of forskolin stimulated cAMP accumulation” value (D3 DAR [4]; maximal extent) was 42-43% and the “internalization of the D2-YFP receptor (confocal images)” value (D2L-YFP) was “promotes internalization of the D2-YFP receptor”.
For CN1CN(c2ccccc2)C2(CCN(CCCC(=O)c3ccc(F)cc3)CC2)C1=O [MSP, methylspiperone, reference compound], the “effect of Gpp(NH)p on binding” value (D2L DAR [6]; Gpp(NH)p 100 μM) was “no effect”.
For CCCN1CCc2cccc3c2[C@H]1Cc1ccc(O)c(O)c1-3 [NPA, N-n-propylnorapomorphine, reference compound], the “% Maximum inhibition” value (D2L DAR [1]) was 72 ± 8%, the “% RH (percentage of receptors configured in the GTP sensitive high-affinity state)” value (D2L DAR [2]; absence of GTP) was 24 ± 1% and the hill coefficient (D2L DAR [3]) was 1.5 ± 0.2. The “% decrease of Bmax” value (D2L DAR [6]) was 17 ± 5% and the “% decrease of Bmax” value (D2L DAR [6]; listed as [^3H]NPA) was 17-21%.
